From ChEMBL document CHEMBL1201862, “PubChem BioAssay data set” (2004) come the findings set out here.

Assay [1] addresses G-protein coupled receptor 55 (Homo sapiens, UniProt Q9Y2T6). Briefly: GPR55 antagonists blocking LPI-driven arrestin recruitment, primary screen, imaging, U2OS, beta-arrestin-GFP, LPI agonist (AID 2013).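 Also: antagonist potency measured as reduced agonist-driven arrestin aggregation.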 It counts as functional.
Assay [2] concerns Streptococcus sp. 'group A'. Briefly: growth inhibition of control SK(-) GAS strain, dose response, counter-screen for streptokinase expression inhibitor project, luminescence, kanamycin, BacTiterGlo, confirmation (AID 1900). It counts as functional, organism-based. Background: Counterscreens check selectivity or assay interference.
Assay [3] concerns the target Luciferin 4-monooxygenase (Photinus pyralis, UniProt P08659). Kind of assay: firefly luciferase enzyme inhibitors, dose response, biochemical, luminescence (AID 1891).
Assay [4] is described as follows: Luminescence Cell-Based Dose Confirmation HTS to Identify Inhibitors of Platelet Dense Granule Release. [Related pubchem assays: 1663 (Primary HTS), 1678 (Summary of Project)]. It counts as functional.
Assay [5] concerns the target T1, Kappa-type opioid receptor (Homo sapiens, UniProt P41145). The format is functional.
Assay [6] concerns the target T2, Beta-galactosidase (Escherichia coli, UniProt Q8VNN2). It counts as functional.
Assay [7] deals with T1, Kappa-type opioid receptor. The format is functional. The source holds these as a separate data set.
For assay [8], the system named is Streptococcus. Briefly: Group A Streptococcus viability loss, dose response, counter-screen for streptokinase expression inhibitor project, luminescence, BacTiterGlo (AID 1915).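 Also: potency for reduction of bacterial viability or growth.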 It counts as functional, organism-based.
Assay [9] is described as follows: THP-1 cell cytotoxicity, dose response, cytotoxicity control for non-replicating M. tuberculosis project (AID 489025). It counts as functional.
Assay [10] is described as follows: HepG2 cell cytotoxicity, dose response, cytotoxicity control for non-replicating M. tuberculosis project (AID 489018). It counts as functional. The conditions noted are these: Mycobacterium tuberculosis.
Assay [11] is described as follows: Vero E6 cell cytotoxicity, dose response, cytotoxicity control for non-replicating M. tuberculosis project, secondary assay (AID 492998). The format is functional, VeroE6. The conditions noted are these: Vero C1008.
A short description of assay [12]: cells. The format is functional.
In assay [13] the test system is INS1. Kind of assay: beta cell apoptosis inhibitors, cytokine rescue, dose response, luminescence, retest (AID 449756).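 Also: cell death triggered by IL-1 beta plus TNF-alpha plus IFN-gamma mixture; protective hits raise ATP signal compared with cytokine alone wells.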 It counts as functional, cell-based. To be noted: Rattus norvegicus.
Assay [14] has as its system Vero. Briefly: cells. To be noted: Chlorocebus sabaeus. The format is functional.
Assay [15] can be described thus: A549 cell cytotoxicity, dose response, cytotoxicity control, plate reader, cherry-pick, antagonist series (AID 743412). The format is functional, cell-based.
The nature of assay [16]: HepG2 cell cytotoxicity, dose response, cytotoxicity control, plate reader, cherry-pick, antagonist series (AID 743416). The format is functional, cell-based.
Assay [17] can be described thus: LGR2 antagonists, dose response, cell-based, HEK293, CRE-luciferase reporter, cherry pick, set 2 (AID 743343).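 Also: transfected cells were stimulated with diluted bursicon conditioned medium after compound addition.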 The format is functional.
The nature of assay [18]: MC4R antagonists, dose response, counter-screen for LGR2 antagonist project, cell-based, plate reader, cherry pick (AID 743444).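 Also: transfected HEK 293 cells stimulated with alpha-MSH peptide; potency of inhibitors of the alpha-MSH evoked signal.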 The format is functional.
The nature of assay [19]: HEK293 cell cytotoxicity, dose response, cytotoxicity control, plate reader, cherry-picked samples (AID 743446). It counts as functional, cell-based.
In assay [20] the target is SUMO E1/E2 (Homo sapiens, UniProt P63279+Q9UBE0+Q9UBT2). Briefly: SAR analysis of SUMOylation using HTRF in an in-Vitro dose response assay. [Related pubchem assays (depositor defined):AID2006, AID2011, AID2018, AID2069, AID2658]. It counts as functional. (In general: In TR-FRET formats the signal depends on donor and acceptor labels being close together.)
The target in assay [21] is T3, Voltage-gated N-type calcium channel alpha-1B subunit/Amyloid beta A4 precursor protein-binding family A member 1 (Homo sapiens, UniProt Q00975+Q02410). Kind of assay: disruptors of Mint-PDZ/N-type channel peptide interaction – biochemical, HTRF, set 2, SAR follow-up (AID 434980). The format is functional.
In assay [22] the target is T3, Voltage-gated N-type calcium channel alpha-1B subunit/Amyloid beta A4 precursor protein-binding family A member 1. Kind of assay: disruptors of Mint-PDZ/N-type channel peptide interaction – biochemical, HTRF, SAR follow-up (AID 2489). The format is functional.
The target in assay [23] is Intestinal-type alkaline phosphatase (Homo sapiens, UniProt P09923). Briefly: Dose Response confirmation of uHTS hits from a small molecule inhibitors of human intestinal alkaline phosphatase via a luminescent assay. [Related pubchem assays (depositor defined):AID2544, AID2574]. It counts as functional.
Assay [24] is described as follows: cytotoxicity in HEK-293T cells, dose response, cytotoxicity control for BCR NF-kB inhibitor project, luminescence, B-cell screen hits (AID 489021).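 Also: HEK-293T cells carrying an NF-kB luciferase reporter; cells exposed to compound for about 14 hours before viability readout.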 The format is functional, cell-based.
In assay [25] the target is T4, Mitochondrial peptide methionine sulfoxide reductase (Bos taurus, UniProt P54149).
T4 sequence (P54149 whole entry): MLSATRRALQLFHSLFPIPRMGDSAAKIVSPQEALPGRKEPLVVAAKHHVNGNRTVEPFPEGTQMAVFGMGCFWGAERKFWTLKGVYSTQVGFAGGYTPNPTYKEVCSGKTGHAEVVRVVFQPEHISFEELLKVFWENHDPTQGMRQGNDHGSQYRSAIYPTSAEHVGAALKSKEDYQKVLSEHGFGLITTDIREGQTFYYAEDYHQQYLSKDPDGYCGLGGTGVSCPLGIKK
Kind of assay: Absorbance-based biochemical high throughput dose response assay for activators of Methionine sulfoxide reductase A (MsrA). It counts as functional.

Assay [26] addresses T5, C-C chemokine receptor type 6 (Homo sapiens, UniProt P51684).
T5 sequence (P51684 whole entry): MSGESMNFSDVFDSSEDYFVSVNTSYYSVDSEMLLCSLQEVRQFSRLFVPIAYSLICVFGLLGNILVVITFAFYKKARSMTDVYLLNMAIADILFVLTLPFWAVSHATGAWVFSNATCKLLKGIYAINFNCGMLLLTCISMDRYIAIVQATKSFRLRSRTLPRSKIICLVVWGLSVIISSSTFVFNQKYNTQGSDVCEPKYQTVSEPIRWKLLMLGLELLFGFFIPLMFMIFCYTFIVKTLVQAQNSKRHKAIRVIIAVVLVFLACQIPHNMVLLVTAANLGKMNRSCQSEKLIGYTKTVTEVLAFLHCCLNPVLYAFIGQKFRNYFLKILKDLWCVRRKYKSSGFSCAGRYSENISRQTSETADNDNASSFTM
Briefly: CCR6 receptor antagonists, dose response, cell-based, luminescent beta-arrestin readout (AID 504728). The format is functional.

For assay [27], the target named is T2, Beta-galactosidase. Briefly: beta-galactosidase enzyme inhibitors and activators, dose response, artefact control for CCR6 antagonist project, biochemical, E. coli enzyme, set 3 (AID 504712). The format is functional.

As usually defined, the IC50 is the concentration at which inhibition is half-maximal. In general, EC50 refers to the concentration at which the effect is half-maximal. What is called CC50 is the concentration giving 50% cytotoxicity. What is called AC50 is the concentration giving half of the maximal activity seen.

Each structure is given as a SMILES string. Calls of active or inactive are those of the source.

T1 sequence (P41145 whole entry): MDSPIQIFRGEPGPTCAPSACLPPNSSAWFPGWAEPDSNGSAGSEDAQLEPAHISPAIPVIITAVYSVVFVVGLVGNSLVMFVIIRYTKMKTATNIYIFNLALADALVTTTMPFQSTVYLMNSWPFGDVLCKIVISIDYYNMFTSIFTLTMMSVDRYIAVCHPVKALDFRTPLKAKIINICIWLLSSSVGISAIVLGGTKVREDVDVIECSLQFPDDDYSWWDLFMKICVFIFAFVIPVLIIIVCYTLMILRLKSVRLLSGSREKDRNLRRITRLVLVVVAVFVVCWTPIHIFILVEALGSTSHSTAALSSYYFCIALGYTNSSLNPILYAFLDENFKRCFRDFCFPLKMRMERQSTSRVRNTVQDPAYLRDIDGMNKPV
G-protein coupled receptor 55, sequence (Q9Y2T6 whole entry): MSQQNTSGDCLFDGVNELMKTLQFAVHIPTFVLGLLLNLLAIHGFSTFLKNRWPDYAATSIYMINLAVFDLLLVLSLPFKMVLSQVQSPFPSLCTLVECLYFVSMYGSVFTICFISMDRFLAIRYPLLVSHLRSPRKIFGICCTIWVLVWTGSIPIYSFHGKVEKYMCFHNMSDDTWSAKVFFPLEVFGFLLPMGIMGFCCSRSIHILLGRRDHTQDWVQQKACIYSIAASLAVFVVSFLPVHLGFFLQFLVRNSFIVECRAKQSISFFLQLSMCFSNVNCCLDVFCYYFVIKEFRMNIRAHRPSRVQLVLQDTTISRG
T3 sequence (Q00975 whole entry): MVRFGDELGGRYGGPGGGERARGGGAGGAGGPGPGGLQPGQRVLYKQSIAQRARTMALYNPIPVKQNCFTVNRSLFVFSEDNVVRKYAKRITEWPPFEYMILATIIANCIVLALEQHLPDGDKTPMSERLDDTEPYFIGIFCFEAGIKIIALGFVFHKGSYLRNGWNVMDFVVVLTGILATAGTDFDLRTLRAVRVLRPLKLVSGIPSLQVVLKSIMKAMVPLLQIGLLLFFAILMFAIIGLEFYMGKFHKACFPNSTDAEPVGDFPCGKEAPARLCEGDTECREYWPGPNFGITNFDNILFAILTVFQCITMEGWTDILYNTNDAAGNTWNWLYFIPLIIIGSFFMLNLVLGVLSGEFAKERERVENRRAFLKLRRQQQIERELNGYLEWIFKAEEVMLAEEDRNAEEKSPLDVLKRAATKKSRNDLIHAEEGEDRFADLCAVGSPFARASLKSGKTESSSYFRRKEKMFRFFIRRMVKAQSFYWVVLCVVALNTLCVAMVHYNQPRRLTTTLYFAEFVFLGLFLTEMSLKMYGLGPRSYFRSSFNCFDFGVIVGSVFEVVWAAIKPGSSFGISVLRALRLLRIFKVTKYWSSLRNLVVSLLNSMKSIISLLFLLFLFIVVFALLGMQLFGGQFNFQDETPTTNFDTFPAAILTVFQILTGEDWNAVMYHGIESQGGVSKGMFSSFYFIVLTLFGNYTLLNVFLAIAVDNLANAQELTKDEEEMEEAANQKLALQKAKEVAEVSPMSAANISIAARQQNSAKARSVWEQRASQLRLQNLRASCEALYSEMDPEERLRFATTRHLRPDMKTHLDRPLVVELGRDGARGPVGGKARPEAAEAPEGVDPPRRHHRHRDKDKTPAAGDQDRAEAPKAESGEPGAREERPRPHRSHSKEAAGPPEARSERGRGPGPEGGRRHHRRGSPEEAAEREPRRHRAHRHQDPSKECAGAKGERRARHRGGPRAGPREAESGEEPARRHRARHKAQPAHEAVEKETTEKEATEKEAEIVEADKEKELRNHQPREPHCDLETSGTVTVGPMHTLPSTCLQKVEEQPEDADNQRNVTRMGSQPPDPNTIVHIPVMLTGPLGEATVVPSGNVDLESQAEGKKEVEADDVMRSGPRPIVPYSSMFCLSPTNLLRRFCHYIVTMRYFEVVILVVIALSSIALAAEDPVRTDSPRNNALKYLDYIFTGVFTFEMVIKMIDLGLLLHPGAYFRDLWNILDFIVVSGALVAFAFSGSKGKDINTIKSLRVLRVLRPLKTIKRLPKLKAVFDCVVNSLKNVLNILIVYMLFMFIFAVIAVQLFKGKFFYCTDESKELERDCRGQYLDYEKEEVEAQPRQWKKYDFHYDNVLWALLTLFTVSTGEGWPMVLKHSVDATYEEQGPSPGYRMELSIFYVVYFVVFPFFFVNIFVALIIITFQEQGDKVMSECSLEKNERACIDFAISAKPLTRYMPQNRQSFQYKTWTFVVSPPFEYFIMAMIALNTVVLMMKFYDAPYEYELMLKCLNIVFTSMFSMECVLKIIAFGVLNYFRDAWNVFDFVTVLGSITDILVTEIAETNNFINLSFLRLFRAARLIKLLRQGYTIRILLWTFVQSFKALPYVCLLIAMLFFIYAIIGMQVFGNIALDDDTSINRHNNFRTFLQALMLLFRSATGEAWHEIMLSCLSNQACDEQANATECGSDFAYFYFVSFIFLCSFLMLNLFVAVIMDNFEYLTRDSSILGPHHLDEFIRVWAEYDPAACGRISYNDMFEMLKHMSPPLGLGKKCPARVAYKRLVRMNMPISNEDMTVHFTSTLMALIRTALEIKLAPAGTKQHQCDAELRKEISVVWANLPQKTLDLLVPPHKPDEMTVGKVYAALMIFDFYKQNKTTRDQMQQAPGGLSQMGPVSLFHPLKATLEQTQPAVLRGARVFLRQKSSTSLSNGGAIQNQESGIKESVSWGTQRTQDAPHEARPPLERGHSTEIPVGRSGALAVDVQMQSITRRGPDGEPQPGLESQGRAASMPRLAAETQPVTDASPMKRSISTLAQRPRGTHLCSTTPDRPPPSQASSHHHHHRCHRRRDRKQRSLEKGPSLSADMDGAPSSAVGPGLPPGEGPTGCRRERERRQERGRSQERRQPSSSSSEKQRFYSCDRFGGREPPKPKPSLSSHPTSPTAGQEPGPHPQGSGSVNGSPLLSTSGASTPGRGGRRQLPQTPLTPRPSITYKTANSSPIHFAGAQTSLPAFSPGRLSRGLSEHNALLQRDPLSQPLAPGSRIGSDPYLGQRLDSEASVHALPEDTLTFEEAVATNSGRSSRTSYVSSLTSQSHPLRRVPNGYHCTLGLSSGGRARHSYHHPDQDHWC
T3 sequence (Q02410 whole entry): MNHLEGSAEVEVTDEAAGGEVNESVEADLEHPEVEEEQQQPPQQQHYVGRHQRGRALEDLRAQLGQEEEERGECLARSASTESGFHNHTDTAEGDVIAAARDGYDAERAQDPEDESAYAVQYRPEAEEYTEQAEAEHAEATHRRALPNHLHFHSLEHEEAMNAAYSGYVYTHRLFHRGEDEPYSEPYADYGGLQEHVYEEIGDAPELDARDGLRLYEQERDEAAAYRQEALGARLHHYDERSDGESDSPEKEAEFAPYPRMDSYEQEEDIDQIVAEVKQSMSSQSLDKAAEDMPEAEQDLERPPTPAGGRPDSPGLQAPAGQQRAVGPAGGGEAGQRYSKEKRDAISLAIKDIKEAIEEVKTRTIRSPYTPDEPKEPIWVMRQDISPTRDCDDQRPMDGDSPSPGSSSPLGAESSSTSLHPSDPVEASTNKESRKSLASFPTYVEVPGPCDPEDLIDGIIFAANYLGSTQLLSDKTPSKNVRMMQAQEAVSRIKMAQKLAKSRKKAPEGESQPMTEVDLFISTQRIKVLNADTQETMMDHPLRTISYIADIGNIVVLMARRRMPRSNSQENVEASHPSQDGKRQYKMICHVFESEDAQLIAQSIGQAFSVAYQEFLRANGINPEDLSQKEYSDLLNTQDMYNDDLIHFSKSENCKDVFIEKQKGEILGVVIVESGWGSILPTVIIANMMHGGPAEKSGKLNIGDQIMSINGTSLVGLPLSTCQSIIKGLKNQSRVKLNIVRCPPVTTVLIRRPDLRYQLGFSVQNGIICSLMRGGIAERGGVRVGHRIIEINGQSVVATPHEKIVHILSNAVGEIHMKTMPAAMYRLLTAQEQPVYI
T2 sequence (Q8VNN2 whole entry): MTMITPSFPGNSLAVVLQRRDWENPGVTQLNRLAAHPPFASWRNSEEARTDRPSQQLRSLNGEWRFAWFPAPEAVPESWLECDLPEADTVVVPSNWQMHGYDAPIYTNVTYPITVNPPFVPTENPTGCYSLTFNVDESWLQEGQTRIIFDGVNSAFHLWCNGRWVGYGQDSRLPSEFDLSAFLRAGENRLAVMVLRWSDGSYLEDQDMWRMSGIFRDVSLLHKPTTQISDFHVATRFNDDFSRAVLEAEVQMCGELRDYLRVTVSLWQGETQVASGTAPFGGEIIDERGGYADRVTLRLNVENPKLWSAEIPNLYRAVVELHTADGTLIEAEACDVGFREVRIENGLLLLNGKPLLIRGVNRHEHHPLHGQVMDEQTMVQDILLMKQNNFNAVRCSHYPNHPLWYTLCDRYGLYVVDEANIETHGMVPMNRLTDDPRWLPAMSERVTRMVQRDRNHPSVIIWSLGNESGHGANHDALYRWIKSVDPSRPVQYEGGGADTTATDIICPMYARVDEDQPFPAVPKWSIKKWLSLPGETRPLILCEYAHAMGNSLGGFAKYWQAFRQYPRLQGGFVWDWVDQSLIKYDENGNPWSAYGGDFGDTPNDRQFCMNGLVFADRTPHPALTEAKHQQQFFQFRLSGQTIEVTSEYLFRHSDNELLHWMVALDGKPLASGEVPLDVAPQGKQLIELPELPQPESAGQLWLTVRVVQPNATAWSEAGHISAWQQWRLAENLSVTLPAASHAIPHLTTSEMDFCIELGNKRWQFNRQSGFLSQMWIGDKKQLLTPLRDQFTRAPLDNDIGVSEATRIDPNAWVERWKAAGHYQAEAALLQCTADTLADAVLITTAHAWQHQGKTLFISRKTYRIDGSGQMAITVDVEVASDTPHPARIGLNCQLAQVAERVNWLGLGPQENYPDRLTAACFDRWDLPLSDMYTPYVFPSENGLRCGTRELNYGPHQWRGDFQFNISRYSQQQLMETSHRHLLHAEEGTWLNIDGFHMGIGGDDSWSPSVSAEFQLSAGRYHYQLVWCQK

On to `CCN1CC2=C(OC(N)=C(C#N)C2c2cccs2)/C(=C/c2cccs2)C1` (centres undefined), for which the IC50 in assay [1] was 5.29 µM (active).

On to `CCOc1ccc2nc(NC(=O)c3ccccn3)sc2c1`, for which the EC50 in assay [2] is 2.98 µM (active); in [3], 0.407 µM (active); in assay [4], 5.58 µM (active); in assay [6] it was > 31.5 µM (inactive); in assay [8], 7.36 µM (active). Besides, the IC50 in assay [5] was 6.51 µM (active); in [7], above 32 µM; in [12] it was 0.43 µM (active). The CC50 in assay [9] is 8.2 µM (active); in [10] it was 19.3 µM (active); in assay [11] it was 7.54 µM (active); in assay [14], 20.4 µM (active). For the same compound, the AC50 in [13] was 3.32 µM (active); in [15], 3.99 µM (active); in [16], 5.82 µM (active); in assay [17], 2 µM (active); in assay [18], 2.42 µM (active); in assay [19], 8.52 µM (active).

As to `COc1ccc(CCNC(=O)COC(=O)c2cc(-c3ccco3)nc3ccccc23)cc1OC`, the 50% inhibitory concentration (IC50) was 17.9 µM (active) in assay [20], 7.73 µM (active) in assay [21] and 23.4 µM (active) in assay [22].

As for `COc1cc(C(=O)NCC(=O)N/N=C/c2ccc(-c3ccc([N+](=O)[O-])cc3)o2)cc(OC)c1OC`, in [23], the IC50 was > 100 µM (inactive).

Consider `C=C1C(=O)[C@@]23C[C@H]4[C@@H]5[C@@]6(C)CCC[C@@]57[C@@H]2[C@@H](O)[C@@H]1C[C@H]3[C@H]7N4C6`, for which the IC50 in assay [24] was > 80 µM (inactive). In assay [25], the EC50 is 15.8 µM (inactive).

Regarding `Cc1nn(-c2ccccc2)c2sc(C(=O)N(CC(=O)NC(C)(C)C)Cc3ccco3)cc12`, the IC50 in [26] and in [27] was > 66.6 µM (inactive) each time.

With `O=C(CCCN1C(=O)S/C(=C\C=C\c2ccccc2)C1=O)Nc1ccc(O)cc1`, the IC50 in [24] is > 80 µM (inactive).

Regarding `C=CCn1c(S)nnc1CCc1cc(C(C)(C)C)c(O)c(C(C)(C)C)c1`, in assay [1], the IC50 was 3 µM (active).
